Laboratory results reported in ChEMBL document CHEMBL2440027, “Further SAR studies on bicyclic basic merbarone analogues as potent antiproliferative agents” (Bioorg Med Chem, 2013).
pIC50: −log10 of the molar value.

Key:
[1] = tested on: OVCAR-5; assay: Growth inhibition of human OVCAR5 cells assessed as cell growth at 10 uM after 48 hrs by sulforhodamine B assay relative to control; assay type: functional; conditions: OVCAR-5, 48 h, read-out: Activity
[2] = tested on: OVCAR-3; assay: Growth inhibition of human OVCAR3 cells assessed as cell growth at 10 uM after 48 hrs by sulforhodamine B assay relative to control; assay type: functional; conditions: OVCAR-3, 48 h, read-out: Activity
[3] = tested on: LOX IMVI; assay: Growth inhibition of human LOXIMVI cells assessed as cell growth at 10 uM after 48 hrs by sulforhodamine B assay relative to control; assay type: functional; conditions: read-out: Activity
[4] = tested on: SF-539; assay: Growth inhibition of human SF539 cells assessed as cell growth at 10 uM after 48 hrs by sulforhodamine B assay relative to control; assay type: functional; conditions: SF-539, 48 h, read-out: Activity
[5] = tested on: SF-268; assay: Growth inhibition of human SF268 cells assessed as cell growth at 10 uM after 48 hrs by sulforhodamine B assay relative to control; assay type: functional; conditions: SF-268, 48 h, read-out: Activity
[6] = tested on: HT-29; assay: Growth inhibition of human HT-29 cells assessed as cell growth at 10 uM after 48 hrs by sulforhodamine B assay relative to control; assay type: functional; conditions: HT-29, 48 h, read-out: Activity
[7] = tested on: HOP-92; assay: Growth inhibition of human HOP92 cells assessed as cell growth at 10 uM after 48 hrs by sulforhodamine B assay relative to control; assay type: functional; conditions: HOP-92, 48 h, read-out: Activity
[8] = tested on: MDA-MB-468; assay: Growth inhibition of human MDA-MB-468 cells after 48 hrs by sulforhodamine B assay; assay type: functional; conditions: MDA-MB-468, 48 h
[9] = tested on: ACHN; assay: Growth inhibition of human ACHN cells after 48 hrs by sulforhodamine B assay; assay type: functional
[10] = tested on: 786-0; assay: Growth inhibition of human 786-0 cells after 48 hrs by sulforhodamine B assay; assay type: functional; conditions: 786-0, 48 h
[11] = tested on: SK-MEL-2; assay: Growth inhibition of human SK-MEL-2 cells after 48 hrs by sulforhodamine B assay; assay type: functional; conditions: SK-MEL-2, 48 h
[12] = tested on: SNB-75; assay: Growth inhibition of human SNB75 cells after 48 hrs by sulforhodamine B assay; assay type: functional; conditions: SNB-75, 48 h
[13] = tested on: NCI-H522; assay: Growth inhibition of human NCI-H522 cells after 48 hrs by sulforhodamine B assay; assay type: functional; conditions: NCI-H522, 48 h; for CC50: read-out: LC50 (the source's name)
[14] = tested on: SR; assay: Growth inhibition of human SR cells after 48 hrs by sulforhodamine B assay; assay type: functional
[15] = tested on: BT-549; assay: Growth inhibition of human BT549 cells assessed as cell growth at 10 uM after 48 hrs by sulforhodamine B assay relative to control; assay type: functional; conditions: BT-549, 48 h, read-out: Activity
[16] = tested on: MDA-MB-231; assay: Growth inhibition of human MDA-MB-231 cells assessed as cell growth at 10 uM after 48 hrs by sulforhodamine B assay relative to control; assay type: functional; conditions: MDA-MB-231, 48 h, read-out: Activity
[17] = tested on: UO-31; assay: Growth inhibition of human UO31 cells assessed as cell growth at 10 uM after 48 hrs by sulforhodamine B assay relative to control; assay type: functional; conditions: UO-31, 48 h, read-out: Activity
[18] = tested on: HeLa; assay: Cytotoxicity against human HeLa cells; assay type: functional, cell-based; conditions: Homo sapiens, HeLa
[19] = tested on: MCF7; assay: Cytotoxicity against human MCF7 cells; assay type: functional, cell-based
[20] = biological target: DNA topoisomerase 2-alpha (Homo sapiens, UniProt P11388); assay: Inhibition of human topoisomerase 2alpha-mediated relaxation of supercoiled pBR322 after 1 hr by ethidium bromide staining
Chain of DNA topoisomerase 2-alpha (P11388 whole entry): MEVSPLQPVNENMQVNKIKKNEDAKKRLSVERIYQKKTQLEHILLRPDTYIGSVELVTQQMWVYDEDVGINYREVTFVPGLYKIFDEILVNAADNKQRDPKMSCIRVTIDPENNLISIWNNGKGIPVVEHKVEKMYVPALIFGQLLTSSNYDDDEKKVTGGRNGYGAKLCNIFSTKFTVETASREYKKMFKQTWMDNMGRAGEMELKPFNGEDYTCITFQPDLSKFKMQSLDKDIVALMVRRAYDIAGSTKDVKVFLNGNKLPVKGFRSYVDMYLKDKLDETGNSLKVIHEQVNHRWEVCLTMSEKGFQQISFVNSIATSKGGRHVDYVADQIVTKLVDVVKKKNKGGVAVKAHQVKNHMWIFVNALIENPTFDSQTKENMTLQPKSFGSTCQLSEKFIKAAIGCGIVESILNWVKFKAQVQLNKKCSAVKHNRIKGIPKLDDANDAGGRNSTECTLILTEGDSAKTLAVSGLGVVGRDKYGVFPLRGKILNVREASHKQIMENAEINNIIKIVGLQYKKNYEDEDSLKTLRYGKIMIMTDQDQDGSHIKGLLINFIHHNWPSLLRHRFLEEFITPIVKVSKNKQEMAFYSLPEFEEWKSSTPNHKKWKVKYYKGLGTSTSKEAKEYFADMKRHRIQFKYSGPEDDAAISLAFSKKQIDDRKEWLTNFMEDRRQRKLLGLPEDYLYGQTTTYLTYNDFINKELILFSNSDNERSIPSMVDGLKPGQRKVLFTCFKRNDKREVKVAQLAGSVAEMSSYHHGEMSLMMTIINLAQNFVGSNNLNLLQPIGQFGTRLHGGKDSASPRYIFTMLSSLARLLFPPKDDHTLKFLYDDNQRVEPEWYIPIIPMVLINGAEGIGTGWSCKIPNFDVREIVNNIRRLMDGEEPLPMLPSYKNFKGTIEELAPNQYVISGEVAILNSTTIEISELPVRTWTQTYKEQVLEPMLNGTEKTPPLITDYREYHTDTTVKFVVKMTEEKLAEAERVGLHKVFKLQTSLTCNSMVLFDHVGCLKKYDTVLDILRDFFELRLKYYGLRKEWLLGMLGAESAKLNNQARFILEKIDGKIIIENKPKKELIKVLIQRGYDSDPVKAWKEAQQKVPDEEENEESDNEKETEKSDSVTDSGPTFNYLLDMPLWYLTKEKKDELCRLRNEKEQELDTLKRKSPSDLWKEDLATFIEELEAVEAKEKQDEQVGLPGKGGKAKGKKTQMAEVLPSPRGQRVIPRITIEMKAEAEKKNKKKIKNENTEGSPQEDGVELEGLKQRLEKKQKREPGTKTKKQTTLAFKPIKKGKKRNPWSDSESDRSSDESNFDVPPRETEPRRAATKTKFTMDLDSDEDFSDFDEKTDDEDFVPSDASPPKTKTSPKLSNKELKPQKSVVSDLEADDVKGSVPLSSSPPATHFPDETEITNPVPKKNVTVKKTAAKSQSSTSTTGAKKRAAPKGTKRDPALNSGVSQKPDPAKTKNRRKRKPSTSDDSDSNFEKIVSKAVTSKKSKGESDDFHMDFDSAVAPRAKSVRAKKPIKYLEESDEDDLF

Row | SMILES | growth at 10 µM [1] | growth at 10 µM [2] | growth at 10 µM [3] | growth at 10 µM [4] | growth at 10 µM [5] | growth at 10 µM [6] | GI50 [8] | LC50 (concentration killing 50% of cells) [8] | TGI [8] | GI50 [9] | LC50 [9] | TGI [9] | GI50 [10] | LC50 [10] | TGI [10] | GI50 [11] | LC50 [11] | TGI [11] | GI50 [12] | LC50 [12] | also measured
1 | CCCCN(CCCC)CCCNc1nc2c(c(=N)n1-c1ccccc1)c(=S)n(-c1ccccc1)c(=S)n2-c1ccccc1 | -60.2% | -100% | -89.7% | -97.7% | -94% | -63.3% | 0.2 µM | 0.6 µM | 0.3 µM | 0.5 µM | 4.1 µM | 1.6 µM | 0.2 µM | 0.8 µM | 0.4 µM | 1.7 µM | 6.9 µM | 3.5 µM | 0.4 µM | 4.1 µM | growth at 10 µM [7]: -66.9%; TGI [12]: 1.6 µM; GI50 [13]: 0.2 µM; TGI [13]: 1.3 µM; CC50 [13]: 5.1 µM; GI50 [14]: 0.3 µM; LC50 [14]: 7 µM; TGI [14]: 1.5 µM; growth at 10 µM [15]: -90.6%; growth at 10 µM [16]: -89.1%; growth at 10 µM [17]: -80.9%
2 | CN(C)CCNc1nc2c(c(=N)n1-c1ccccc1)c(=S)n(-c1ccccc1)c(=S)n2-c1ccccc1 | 63.1% | -48.7% | -61.4% | -86.9% | 24% | -35.7% | 1.2 µM | 6 µM | 2.7 µM | 3.2 µM | 34.1 µM | 11.3 µM | 1.4 µM | 21.4 µM | 4.3 µM | 1.7 µM | 6.7 µM | 3.4 µM | 2.4 µM | 31.9 µM | pIC50 [18]: 4.90; pIC50 [19]: 4.80; pIC50 [20]: < 4.00; TGI [12]: 7.5 µM; GI50 [13]: 2.1 µM; TGI [13]: 5.4 µM; CC50 [13]: 27.6 µM; GI50 [14]: 1.4 µM; LC50 [14]: 8.2 µM; TGI [14]: 3.3 µM; growth at 10 µM [15]: 4.45%; growth at 10 µM [16]: -13%; growth at 10 µM [17]: 3.1%
